Test results: article PMC6881254, “ABCA1 transporter reduces amphotericin B cytotoxicity in mammalian cells” (Cellular and Molecular Life Sciences: CMLS, 2019)
In brackets after ≈: the same amount, converted by molar mass. Read-outs that look alike come from different tables or passages of the source.

Key:
A1G and MMG cell lines = assay: Total cellular cholesterol content (Amplex Red) after zaragozic acid treatment; format: cell-based, Chinese hamster; conditions: 10 µM ZA in ΔFBS medium 16 h, compared with non-ZA-treated cells cultured in ΔFBS medium
Method: To lower the cholesterol content in the cells, A1G and MMG cell lines were seeded at either 1 × 10^4 cells/well in a 96-well plate (cytotoxicity) or 4 × 10^5 cells/well (cholesterol content) in a 6-well plate in complete Ham’s F-12 medium for 8 h to allow the cells to attach to the plate. Cells were then washed three times with Ham’s F-12 medium supplemented with delipidated serum (Biowest) (ΔFBS medium) and incubated with 10 µM zaragozic acid (ZA) in ΔFBS medium for 16 h at 37 °C, 5% CO2. […]
The cells were harvested, washed three times with PBS and lysed with RIPA buffer (25 mM HEPES, pH 7.4, 150 mM NaCl, 1% NP40, 10 mM MgCl2, 1 mM EDTA, 2% glycerol, protease and phosphatase inhibitor cocktail) for 30 min on ice. […] Total cellular cholesterol level was determined enzymatically by cholesterol oxidase using the Amplex Red Cholesterol Assay Kit (Thermo Fisher Scientific) according to the manufacturer’s recommendations. […] The protein concentration was measured by BCA Assay Kit (Sigma-Aldrich). […] Fluorescence was measured using excitation at 560 nm and emission detection at 590 nm with a Cary Eclipse fluorescence microplate reader (Agilent Technologies). […] The final cholesterol content was calculated in ng of cholesterol per µg of protein.

MMG cells [1] = assay: AmB cytotoxicity, MTT assay in MMG cells (CHO-K1 stably expressing non-active ABCA1MM-GFP); format: cell-based, Chinese hamster; conditions: Cricetulus griseus, ± SE
Method: (§1) A1G and MMG cell lines, mock and GW3965-treated macrophages were seeded in triplicate in 96-well plates at 1 × 10^4 cells/well for CHO cells and 2 × 10^4 cells for Raw 264.7 macrophages and incubated in complete Ham’s F-12 medium at 37 °C, 5% CO2 overnight to allow the cells to attach to the plate. […] For probucol treatment, the cells were preincubated with 10 µM probucol in complete Ham’s F-12 medium at 37 °C, 5% CO2 for 2 h. Then, the medium was removed and AmB was added in different concentrations (from 0 to 40 µg/mL) in complete Ham’s F-12 medium containing 10 µM probucol and cells were incubated for additional 3 h at 37 °C, 5% CO2. After incubation, the medium was removed and 3-[4,5-dimethylthiazol-2-yl]-2,5-diphenyltetrazolium bromide (MTT, 0.5 mg/mL, Sigma-Aldrich) in complete Ham’s F-12 was added. Cells were incubated for 4 h at 37 °C, then MTT was removed carefully and the formazan crystals were dissolved in DMSO. Plates were shaken for 10 min before reading them on a UVM 340 microplate reader (Biogenet) at 550 nm with a reference wavelength of 630 nm. The cell viability was estimated as the percentage of the control, which was the cells untreated with any agents (100%).
(§2) To lower the cholesterol content in the cells, A1G and MMG cell lines were seeded at either 1 × 10^4 cells/well in a 96-well plate (cytotoxicity) or 4 × 10^5 cells/well (cholesterol content) in a 6-well plate in complete Ham’s F-12 medium for 8 h to allow the cells to attach to the plate. Cells were then washed three times with Ham’s F-12 medium supplemented with delipidated serum (Biowest) (ΔFBS medium) and incubated with 10 µM zaragozic acid (ZA) in ΔFBS medium for 16 h at 37 °C, 5% CO2. To reload the plasma membrane with cholesterol, cells after ZA treatment were washed three times with ΔFBS medium and incubated with 100 µM cholesterol–1 mM methyl-β-cyclodextrin complex in ΔFBS medium for 30 min at 37 °C, 5% CO2. As a control, cells were incubated for 16 h with only ΔFBS medium at 37 °C, 5% CO2. After treatment, cells were either processed with AmB cytotoxicity MTT assay or lysed as described for cholesterol content measurement.
(§3) All mathematical and statistical analysis was performed using the GraphPad Prism 7 software package (GraphPad). For IC50 value determination, a nonlinear fit (inhibitor vs. normalized response with variable slope) of cell viability in the function of AmB decreased concentrations was applied. The statistical significance of differences was assessed either by two-way ANOVA or by t test. For all tests, the significance level (alpha, α) was set to 0.05. Significant differences are indicated in individual graphs with p values as follows: ****p < 0.0001, ***p < 0.001, **p < 0.01, *p < […]. If the differences were not significant, nothing is stated. For each result, an appropriate description of the analysis appears in the figure legend.

CHO-K1 wild-type cells = assay: AmB cytotoxicity, MTT assay in CHO-K1 wild-type cells; format: cell-based, Chinese hamster; conditions: Cricetulus griseus, AmB 3 h, read-out: IC50 (cell viability, MTT)
Method: (§4) A1G and MMG cell lines, mock and GW3965-treated macrophages were seeded in triplicate in 96-well plates at 1 × 10^4 cells/well for CHO cells and 2 × 10^4 cells for Raw 264.7 macrophages and incubated in complete Ham’s F-12 medium at 37 °C, 5% CO2 overnight to allow the cells to attach to the plate. The medium was then removed, AmB was added in complete Ham’s F-12 medium (or in ΔFBS medium, see next paragraph) in different concentrations (from 0 to 40 µg/mL) and cells were incubated for 3 h at 37 °C. For probucol treatment, the cells were preincubated with 10 µM probucol in complete Ham’s F-12 medium at 37 °C, 5% CO2 for 2 h. Then, the medium was removed and AmB was added in different concentrations (from 0 to 40 µg/mL) in complete Ham’s F-12 medium containing 10 µM probucol and cells were incubated for additional 3 h at 37 °C, 5% CO2. After incubation, the medium was removed and 3-[4,5-dimethylthiazol-2-yl]-2,5-diphenyltetrazolium bromide (MTT, 0.5 mg/mL, Sigma-Aldrich) in complete Ham’s F-12 was added. […] Plates were shaken for 10 min before reading them on a UVM 340 microplate reader (Biogenet) at 550 nm with a reference wavelength of 630 nm. […]
(§5) All mathematical and statistical analysis was performed using the GraphPad Prism 7 software package (GraphPad). […] The statistical significance of differences was assessed either by two-way ANOVA or by t test. […]

A1G cells [2] = assay: AmB cytotoxicity, MTT assay in A1G cells (CHO-K1 stably expressing ABCA1-GFP); format: cell-based, Chinese hamster; conditions: Cricetulus griseus, ± SE
Method: as §1, §2, §3

Raw 264.7 macrophages = assay: AmB cytotoxicity, MTT assay in Raw 264.7 macrophages; format: cell-based, murine; conditions: Mus musculus, RAW264.7, AmB 3 h, read-out: IC50 (cell viability, MTT)
Method: as §4, with “CO2.” for “CO2. After incubation, the medium was removed and 3-[4,5-dimethylthiazol-2-yl]-2,5-diphenyltetrazolium bromide (MTT, 0.5 mg/mL, Sigma-Aldrich) in complete Ham’s F-12 was added.”
as §5
Cells were exposed to increased concentrations of AmB, ranging from 0 to 40 µg/mL, for 3 h and then the viability was analyzed by MTT assay. […]

MMG cells [3] = assay: [3H]-cholesterol efflux to AmB as acceptor in MMG cells; format: cell-based, Chinese hamster; conditions: 20 µg/mL AmB
Method: (§6) The [^3H]-cholesterol efflux protocol was adapted from Yang and Gelissen. Briefly, A1G and MMG cells were seeded in 0.5 mL of complete Ham’s F12 medium at 5 × 10^4 cells/well in 24-well plates and grown overnight at 37 °C, 5% CO2. The next day, the cell culture medium was replaced either with 0.25 mL of complete Ham’s F12 medium or complete Ham’s F12 medium containing 1 µCi/mL of [^3H]-cholesterol (Perkin Elmer) and incubated for 24 h at 37 °C, 5% CO2. On the last day, the cell medium was removed, and the cells were washed three times with PBS buffer (with intermediate 15 min incubation in PBS buffer). Afterwards, cells were incubated for 3 h in 0.25 mL of complete Ham’s F12 medium containing (or not, in controls) 20 µg/mL of AmB at 37 °C, 5% CO2. […] One hundred fifty microliters of each of cell medium and cell lysate were added to 5 mL of Ecolite + scintillation cocktail (MPBIO) and radioactivity was counted in CPM mode using a Beckman LS analyzer (Beckman Coulter). After subtraction of background radioactivity, the percentage of [^3H]-cholesterol efflux was calculated according to the formula: (CPM in media)/[(CPM in media) + (CPM in cells)].

A1G cells [4] = assay: [3H]-cholesterol efflux to AmB as acceptor in A1G cells; format: cell-based, Chinese hamster; conditions: 20 µg/mL AmB
Method: as §6

Compound: C=C(CC[C@]12O[C@H](C(=O)O)[C@@](O)(C(=O)O)[C@](C(=O)O)(O1)[C@H](OC(=O)/C=C/[C@@H](C)C[C@@H](C)CC)[C@H]2O)[C@@H](OC(C)=O)[C@H](C)Cc1ccccc1 [zaragozic acid]
- decrease of total cellular cholesterol content (A1G and MMG cell lines): approximately 50%

Compound: C[C@@H]1[C@H](O)[C@@H](C)/C=C/C=C/C=C/C=C/C=C/C=C/C=C/[C@H](O[C@@H]2O[C@H](C)[C@@H](O)[C@H](N)[C@@H]2O)C[C@@H]2O[C@](O)(C[C@@H](O)C[C@@H](O)[C@H](O)CC[C@@H](O)C[C@@H](O)CC(=O)O[C@H]1C)C[C@H](O)[C@H]2C(=O)O [AmB, Amphotericin B]
- IC50 (MMG cells [1]; CHO-K1, 3 h, MMG, complete Ham's F12 medium, AmB 3 h): 13.1 ± 1 µg/mL (≈ 14.2 µM)
- IC50 (MMG cells [1]; CHO-K1, 6 h, MMG, complete Ham's F12 medium, 6 h AmB): 10.6 ± 0.48 µg/mL (≈ 11.5 µM)
- IC50 (MMG cells [1]; CHO-K1, 16 h, MMG, complete Ham's F12 medium, 16 h AmB): 6.65 ± 0.28 µg/mL (≈ 7.2 µM)
- IC50 (MMG cells [1]; CHO-K1, 16 h, MMG, ΔFBS medium + 10 µM zaragozic acid (ZA) 16 h): 10 ± 0.67 µg/mL
- IC50 (MMG cells [1]; CHO-K1, MMG, complete Ham's F12 + 10 µM probucol (2 h pretreatment), AmB 3 h): 9.47 ± 0.31 µg/mL
- IC50 (MMG cells [1]; CHO-K1, MMG, ΔFBS medium (delipidated serum)): 10.2 ± 0.42 µg/mL (≈ 11 µM)
- IC50 (MMG cells [1]; CHO-K1, MMG, ΔFBS medium + ZA, reloaded with cholesterol (MβCD complex)): 6.42 ± 0.38 µg/mL
- IC50 (CHO-K1 wild-type cells): 16.8 µg/mL (≈ 18.1 µM)
- IC50 (A1G cells [2]; CHO-K1, 3 h, A1G, complete Ham's F12 medium, AmB 3 h): 39.2 ± 4.49 µg/mL (≈ 42.4 µM)
- IC50 (A1G cells [2]; CHO-K1, 6 h, A1G, complete Ham's F12 medium, 6 h AmB): 30.9 ± 1.66 µg/mL (≈ 33.5 µM)
- IC50 (A1G cells [2]; CHO-K1, 16 h, A1G, complete Ham's F12 medium, 16 h AmB): 11.4 ± 0.35 µg/mL (≈ 12.4 µM)
- IC50 (A1G cells [2]; CHO-K1, 16 h, A1G, ΔFBS medium + 10 µM zaragozic acid (ZA) 16 h): 9.75 ± 0.53 µg/mL
- IC50 (A1G cells [2]; CHO-K1, A1G, complete Ham's F12 + 10 µM probucol (2 h pretreatment), AmB 3 h): 14.4 ± 0.36 µg/mL
- IC50 (A1G cells [2]; CHO-K1, A1G, ΔFBS medium (delipidated serum)): 21.2 ± 1.09 µg/mL (≈ 22.9 µM)
- IC50 (A1G cells [2]; CHO-K1, A1G, ΔFBS medium + ZA, reloaded with cholesterol (MβCD complex)): 18.9 ± 0.77 µg/mL
- IC50 (Raw 264.7 macrophages; Raw 264.7 cells induced with 1 µM GW3965 for 24 h (ABCA1 expression)): 14.6 µg/mL (≈ 15.7 µM)
- IC50 (Raw 264.7 macrophages; mock (DMSO) control Raw 264.7 cells): 6.18 µg/mL (≈ 6.69 µM)
- [3H]-cholesterol efflux to AmB (MMG cells [3]): 0.3%
- [3H]-cholesterol efflux to AmB (A1G cells [4]): 5.1%
